Source: US6800618B2, “Chemosensitizing agents against chloroquine resistant plasmodium falciparum and methods of making and using thereof” (The United States of America as represented by the …, priority 2001, dated 2004)

Key:
TM91C235 = assay: FIC index in TM91C235 isolate; type: cell-based, Plasmodium falciparum; design: key: 1.0 = additive; <1.0 = synergy; >1.0 = antagonism; conditions: isolate from Southeast Asia (Thailand); same method as for W-2
Procedure: Fifty percent inhibitory concentrations (IC50s) were determined for each candidate compound alone and for candidate compounds in fixed combinations of their respective IC50s (1:1, 1:3, 3:1). […] The FIC is the actual IC50 of one compound in the presence of a second compound but is expressed as a fraction of its IC50 when used alone. This index is a mathematical representation of the isobologram such that an FIC index of 1.0 represents the line of additive on the isobologram. An FIC index of less than 1.0 represents synergy or potentiation and an FIC index of greater than 1.0 represents antagonism.
The same assay method described above for W-2 was used except that the strains used were isolated from Thailand, Brazil, and Peru, respectively.

[1] = tested on: Plasmodium falciparum W2 clone; assay: FIC index with chloroquine (isobologram analysis) in W2 clone; type: cell-based; design: key: 1.0 = additive; <1.0 = synergy; >1.0 = antagonism; conditions: 1:1 combination of drug and chloroquine; chloroquine-resistant W2 clone
Procedure: In brief, the assay is based on the incorporation of radiolabeled hypoxanthine by the parasites and inhibition of isotope incorporation is attributed to activity of known or candidate antimalarial drugs. For each assay, proven antimalarials, such as chloroquine, mefloquine, quinine, artemisinin, pyrimethamine and sulfadoxine, were used as controls. The incubation period was 66 hours and the starting parasitemia was 0.2% with a 1% hematocrit. […] Albumax may be used instead of 10% normal heat inactivated human plasma.
(§1) 25 μl of each diluted candidate compound was then transferred to test plates, 200 μl of parasitized erythrocytes (0.2% parasitemia and 1% hematocrit) were added, and incubated at 37° C. in a controlled environment of 5% CO2, 5% O2 and 90% N2. After 42 hours, 25 μl of ^3H-hypoxanthine was added and the plates were incubated for an additional 24 hours. At the end of the 66 hour incubation period, the plates were frozen at −70° C. to lyse the red cells and later thawed and harvested onto glass fiber filter mats by using a 96-well cell harvester. The filter mats were then counted in a scintillation counter and the data was analyzed.
The FIC is the actual IC50 of one compound in the presence of a second compound but is expressed as a fraction of its IC50 when used alone. This index is a mathematical representation of the isobologram such that an FIC index of 1.0 represents the line of additive on the isobologram. An FIC index of less than 1.0 represents synergy or potentiation and an FIC index of greater than 1.0 represents antagonism.
In the isobologram graphs as shown in FIGS. 1-3, the x-axis is fractional inhibitory concentration (FIC) of chloroquine and the y-axis is FIC of chemosensitizing agent. The FIC is the actual IC50 of one drug in the presence of the second drug but is expressed as a fraction of its IC50 when used alone. If the isobologram graph is a straight line, it represents an additive effect of the two drugs. If the graph forms a concave curve below the line, it indicates synergy or potentiation of the combination. Below the line means synergy or potentiation and above the line means antagonism.

RCS = assay: FIC index in RCS isolate; type: cell-based, Plasmodium falciparum; design: key: 1.0 = additive; <1.0 synergy; >1.0 antagonism; conditions: isolate from Brazil; same method as for W-2
Procedure: (§2) Fifty percent inhibitory concentrations (IC50s) were determined for each candidate compound alone and for candidate compounds in fixed combinations of their respective IC50s (1:1, 1:3, 3:1). […] See Elion, G. V., et al. (1954) J Biol Chem 208:477-488, which is herein incorporated by reference. The FIC is the actual IC50 of one compound in the presence of a second compound but is expressed as a fraction of its IC50 when used alone. This index is a mathematical representation of the isobologram such that an FIC index of 1.0 represents the line of additive on the isobologram. An FIC index of less than 1.0 represents synergy or potentiation and an FIC index of greater than 1.0 represents antagonism.
(§3) Parasites from different regions responded differently to the compounds of the present invention. The same assay method described above for W-2 was used except that the strains used were isolated from Thailand, Brazil, and Peru, respectively.

Peruvian PC49 = assay: FIC index in Peruvian PC49 isolate; type: cell-based, Plasmodium falciparum; design: key: 1.0 = additive; <1.0 synergy; >1.0 antagonism; conditions: isolate from South America (Peru); same method as for W-2
Procedure: as §2, §3

TM91C235 cells = assay: In vitro reversal activity (cell growth suppression, 3H-hypoxanthine incorporation) in TM91C235 cells; type: cell-based, Plasmodium falciparum; conditions: for Control % sup: test compounds only
Text: For quantitative in vitro drug susceptibility testing, two well characterized P. falciparum clones, W2 and D6, were used. See Oduola et al. (1988) Exp Parasitol 66:86-95, which is herein incorporated by reference. W2 is a clone of the Indochina I isolate and is resistant to chloroquine and pyrimethamine, but susceptible to mefloquine. D6 is a clone from the Sierra I/UNC isolate and is susceptible to chloroquine and pyrimethamine, but has reduced susceptibilities to mefloquine and halofantrine. TM91C235 was isolates from Thailand and is highly resistant to mefloquine, chloroquine, and quinine.
The in vitro antimalarial drug susceptibility assay used is a modification of the procedures first published by Desjardins, et al. with modifications developed by Milhous, et al. See Desjardins, R. E., et al. (1979) Antimicrobial Agents Chemother 16:710-718; and Milhous, et al. (1985) Antimicrobial Agents Chemother 27:525-530, which are herein incorporated by reference. In brief, the assay is based on the incorporation of radiolabeled hypoxanthine by the parasites and inhibition of isotope incorporation is attributed to activity of known or candidate antimalarial drugs. For each assay, proven antimalarials, such as chloroquine, mefloquine, quinine, artemisinin, pyrimethamine and sulfadoxine, were used as controls. The incubation period was 66 hours and the starting parasitemia was 0.2% with a 1% hematocrit. The media used was RPMI-1640 culture media with no folate or p-aminobenzoic acid (PABA). Albumax may be used instead of 10% normal heat inactivated human plasma.
If a candidate compound was tested without any prior knowledge of its activity or solubility, the compound was dissolved directly in dimethylsulfoxide (DMSO) and diluted 400 fold with complete culture media. These unknown compounds were normally started at a highest concentration of about 50,000 ng/ml. The compounds were then diluted 2-fold, 11 times, to give a concentration range of about 1,048-fold. These dilutions were performed automatically by a Biomek 1000 or 2000 Liquid Handling System into 96-well microtiter plates.
as §1
Each of these test compounds were tested under three different concentrations, 5000, 500, and 50 ng/ml, in the presence of 10 ng/ml of chloroquine and 5 ng/ml of mefloquine. […] Thus, the compounds of the present invention may be used to treat, prevent or inhibit drug resistant malaria.

[2] = test compound 50 ng/ml combined with 5 ng/ml mefloquine
[3] = test compound 500 ng/ml combined with 5 ng/ml mefloquine
[4] = test compound 500 ng/ml combined with 10 ng/ml chloroquine
[5] = test compound 5000 ng/ml combined with 5 ng/ml mefloquine
[6] = test compound 5000 ng/ml combined with 10 ng/ml chloroquine

CN(C)CCCCN1c2ccccc2CCc2ccccc21 [7i, 5-(4-Dimethylaminobutyl)iminodibenzyl]
FIC index TM91C235 (TM91C235): 0.26 | FIC (fractional inhibitory concentration) index [1]: 0.23 | FIC index RCS (RCS): 0.52 | FIC index Peruvian PC49 (Peruvian PC49): 0.62 | Mefloquine % SUP (TM91C235 cells; [2]): 43% | Mefloquine % SUP (TM91C235 cells; [3]): 70% | Chloroquine % sup (TM91C235 cells; [4]): 99% | Mefloquine % SUP (TM91C235 cells; [5]): 95% | Chloroquine % sup (TM91C235 cells; [6]): 100% | Control % sup (TM91C235 cells; 50 ng/ml): 59% | Control % sup (TM91C235 cells; 500 ng/ml): 73% | Control % sup (TM91C235 cells; 5000 ng/ml): 96%

c1ccc2c(c1)CCc1ccccc1N2CCCCN1CCCC1 [compound 7m, 5-(4-Pyrrolidin-1-yl-butyl)iminodibenzyl]
FIC index TM91C235 (TM91C235): 0.42 | FIC (fractional inhibitory concentration) index [1]: 0.32 | FIC index RCS (RCS): 0.51 | FIC index Peruvian PC49 (Peruvian PC49): 0.66 | Mefloquine % SUP (TM91C235 cells; [2]): 64% | Mefloquine % SUP (TM91C235 cells; [3]): 96% | Chloroquine % sup (TM91C235 cells; [4]): 100% | Mefloquine % SUP (TM91C235 cells; [5]): 100% | Chloroquine % sup (TM91C235 cells; [6]): 100% | Control % sup (TM91C235 cells; 50 ng/ml): 58% | Control % sup (TM91C235 cells; 500 ng/ml): 98% | Control % sup (TM91C235 cells; 5000 ng/ml): 100%

c1ccc2c(c1)CCc1ccccc1N2CCCCN1CCCCC1 [7n, 5-(4-Piperidin-1-yl-butyl) iminodibenzyl]
FIC index TM91C235 (TM91C235): 0.54 | FIC (fractional inhibitory concentration) index [1]: 0.45 | FIC index RCS (RCS): 0.36 | FIC index Peruvian PC49 (Peruvian PC49): 0.73

CCN(CC)CCCCN1c2ccccc2Sc2ccccc21 [7b, 10-(4-Diethylaminobutyl)phenothiazine]
FIC index TM91C235 (TM91C235): 0.29 | FIC (fractional inhibitory concentration) index [1]: 0.23 | FIC index RCS (RCS): 0.41 | FIC index Peruvian PC49 (Peruvian PC49): 0.41 | Mefloquine % SUP (TM91C235 cells; [2]): 17% | Chloroquine % sup (TM91C235 cells; test compound 50 ng/ml combined with 10 ng/ml chloroquine): 31% | Mefloquine % SUP (TM91C235 cells; [3]): 30% | Chloroquine % sup (TM91C235 cells; [4]): 99% | Mefloquine % SUP (TM91C235 cells; [5]): 100% | Chloroquine % sup (TM91C235 cells; [6]): 100% | Control % sup (TM91C235 cells; 50 ng/ml): 26% | Control % sup (TM91C235 cells; 500 ng/ml): 38% | Control % sup (TM91C235 cells; 5000 ng/ml): 100%

CCN(CC)CCCCN1c2ccccc2CCc2ccccc21 [7j, 5-(4-Diethylaminobutyl)iminodibenzyl]
FIC index TM91C235 (TM91C235): 0.41 | FIC (fractional inhibitory concentration) index [1]: 0.39 | FIC index RCS (RCS): 0.57 | FIC index Peruvian PC49 (Peruvian PC49): 0.57 | Mefloquine % SUP (TM91C235 cells; [2]): 64% | Mefloquine % SUP (TM91C235 cells; [3]): 95% | Chloroquine % sup (TM91C235 cells; [4]): 100% | Mefloquine % SUP (TM91C235 cells; [5]): 100% | Chloroquine % sup (TM91C235 cells; [6]): 100% | Control % sup (TM91C235 cells; 50 ng/ml): 62% | Control % sup (TM91C235 cells; 500 ng/ml): 95% | Control % sup (TM91C235 cells; 5000 ng/ml): 100%

c1ccc2c(c1)Sc1ccccc1N2CCCCN1CCCC1 [compound 7e, 10-(4-Pyrrolidin-1-yl-butyl)phenothiazine]
FIC index TM91C235 (TM91C235): 0.25 | FIC (fractional inhibitory concentration) index [1]: 0.21 | FIC index RCS (RCS): 0.51 | FIC index Peruvian PC49 (Peruvian PC49): 0.5 | Mefloquine % SUP (TM91C235 cells; [2]): 33% | Mefloquine % SUP (TM91C235 cells; [3]): 67% | Chloroquine % sup (TM91C235 cells; [4]): 99% | Mefloquine % SUP (TM91C235 cells; [5]): 95% | Chloroquine % sup (TM91C235 cells; [6]): 100% | Control % sup (TM91C235 cells; 50 ng/ml): 38% | Control % sup (TM91C235 cells; 500 ng/ml): 70% | Control % sup (TM91C235 cells; 5000 ng/ml): 96%

CCN(CC)CCCCCN1c2ccccc2CCc2ccccc21 [7u, 5-(5-Diethylaminopentyl)iminodibenzyl]
FIC index TM91C235 (TM91C235): 0.48 | FIC (fractional inhibitory concentration) index [1]: 0.44 | FIC index RCS (RCS): 0.36 | FIC index Peruvian PC49 (Peruvian PC49): 0.82
